These results are taken from publication PMC10766610, “DCAF1-based PROTACs with activity against clinically validated targets overcoming intrinsic- and acquired-degrader resistance” (Nature Communications, 2024).

For one experiment, the target named is T1, BRD7 (Homo sapiens, UniProt Q9NPI1).
T1 sequence (Q9NPI1 1-651): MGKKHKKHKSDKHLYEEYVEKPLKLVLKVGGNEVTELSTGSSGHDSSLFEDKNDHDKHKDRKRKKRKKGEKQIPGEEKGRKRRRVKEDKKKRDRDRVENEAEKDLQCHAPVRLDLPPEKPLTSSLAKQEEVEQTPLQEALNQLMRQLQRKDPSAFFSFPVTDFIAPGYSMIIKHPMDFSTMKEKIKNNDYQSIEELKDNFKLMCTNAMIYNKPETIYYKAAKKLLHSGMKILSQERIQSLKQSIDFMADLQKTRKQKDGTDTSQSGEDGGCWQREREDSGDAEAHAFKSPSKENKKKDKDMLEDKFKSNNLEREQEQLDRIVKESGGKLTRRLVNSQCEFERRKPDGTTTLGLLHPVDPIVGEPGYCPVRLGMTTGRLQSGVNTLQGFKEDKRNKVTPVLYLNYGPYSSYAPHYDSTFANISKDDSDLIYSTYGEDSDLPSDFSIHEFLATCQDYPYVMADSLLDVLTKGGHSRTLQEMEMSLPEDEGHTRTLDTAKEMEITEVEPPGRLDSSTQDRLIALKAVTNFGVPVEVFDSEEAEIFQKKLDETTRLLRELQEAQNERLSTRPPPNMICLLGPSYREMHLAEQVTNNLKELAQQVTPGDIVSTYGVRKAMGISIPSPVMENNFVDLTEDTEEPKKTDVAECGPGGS
Description: BRD7-HiBiT protein abundance luminescence assay in HEK293 cells. (HiBiT is a short tag that completes a luciferase, so light tracks the accessible tagged protein.)

A further experiment deals with HEK293T cells. Description: Whole proteomics profile, DDa-1 vs (13), HEK293T cells. It counts as cell-based, human. The conditions noted are these: 5 µM DDa-1 vs 5 µM (13), 6 h. How it is done:
HEK293T and TMD8 cells were cultured according to protocol and 3 million cells were plated per sample and recovered for 24 h. The following day, cells were treated with indicated compounds at corresponding concentrations for 6 h. Cells were then harvested and washed 2× with PBS before removing all liquid and snap freezing in liquid nitrogen before sample preparation for proteomics.
TMT-labeled peptides were generated with the iST-NHS kit (PreOmics) and TMT10plex (duplicates per condition) or TMT18plex (triplicates per condition) reagent (Thermo Fisher Scientific). Equal amounts of labeled peptides were pooled and separated on a high pH fractionation system with a water-acetonitrile gradient containing 10 mM ammonium formate, pH 11[88]. Alternating rows of the resulting 72 fractions were pooled into 24 samples, dried and resuspended in water containing 0.1% formic acid.
The LC-MS analysis was carried out on an EASY-nLC 1200 system coupled to an Orbitrap Fusion Lumos Tribrid mass spectrometer (Thermo Fisher Scientific). […]
LC-MS raw files were analyzed with Proteome Discoverer 2.4 (Thermo Fisher Scientific). […] TMT reporter ions of the MS3 spectra were integrated with a 20 ppm tolerance and the reporter ion intensities were used for quantification. […] Protein relative quantification was performed using an in-house developed R (v.3.6) script. […]

The target in a further experiment is T2, LIMK2 (Homo sapiens, UniProt P53671).
T2 construct: host or cells: HEK293T
Description: Immunoblot of LIMK2 in HEK293T cells. Format: cell-based. As to conditions: 6 h. On the procedure: (§1) Whole cell lysates for immunoblotting were prepared by pelleting cells at 4 °C (300 g) for 3 min. Cell pellets were then washed 1x with PBS and resuspended in RIPA lysis buffer (VWR, cat # 97063-270) supplemented with protease (Thermo Scientific, cat # A32955) and phosphatase (Thermo Scientific, cat # A32957) inhibitor tablets. Lysates were clarified at 16,000 × g for 15 min at 4 °C prior to quantification by Lowry assay (Bio-Rad cat # 5000113 and cat # 5000114). Whole-cell lysates were loaded into 4–20% Criterion TGX Precast 18 well gels (Bio-Rad, cat # 5671094) and separated by electrophoreses at 120 V for 1 h. The gels were transferred to a nitrocellulose membrane using the Trans-Blot Turbo (Bio-Rad) for 7 min and then blocked for 1 h at room temperature in Odyssey blocking buffer (LICOR Biosciences, cat # 927-50000). Membranes were probed with the appropriate primary antibodies (diluted 1:1000) overnight at 4 °C in 20% Odyssey blocking buffer in 1x TBST. Membranes were washed three times with 1x TBST (5 min per wash), and then incubated with IRDye goat anti-mouse (LICOR, cat # 926-32210) or goat anti-rabbit (LICOR, cat # 926-32211) secondary antibody diluted 1:10,000 in 20% Odyssey blocking buffer for 1 h at room temperature. After three 5-min washes with 1x TBST, the immunoblots were visualized using the ODYSSEY Infrared Imaging System (LICOR). […]

Another experiment deals with T3, ABL1 (Homo sapiens, UniProt P00519).
T3 construct: host or cells: HEK293T
Description: Immunoblot of ABL1 in HEK293T cells. Format: cell-based. The conditions noted are these: 6 h. How it is done:
as §1

“Also recorded” adds a separate entry of the source.

T2 sequence (P53671 whole entry): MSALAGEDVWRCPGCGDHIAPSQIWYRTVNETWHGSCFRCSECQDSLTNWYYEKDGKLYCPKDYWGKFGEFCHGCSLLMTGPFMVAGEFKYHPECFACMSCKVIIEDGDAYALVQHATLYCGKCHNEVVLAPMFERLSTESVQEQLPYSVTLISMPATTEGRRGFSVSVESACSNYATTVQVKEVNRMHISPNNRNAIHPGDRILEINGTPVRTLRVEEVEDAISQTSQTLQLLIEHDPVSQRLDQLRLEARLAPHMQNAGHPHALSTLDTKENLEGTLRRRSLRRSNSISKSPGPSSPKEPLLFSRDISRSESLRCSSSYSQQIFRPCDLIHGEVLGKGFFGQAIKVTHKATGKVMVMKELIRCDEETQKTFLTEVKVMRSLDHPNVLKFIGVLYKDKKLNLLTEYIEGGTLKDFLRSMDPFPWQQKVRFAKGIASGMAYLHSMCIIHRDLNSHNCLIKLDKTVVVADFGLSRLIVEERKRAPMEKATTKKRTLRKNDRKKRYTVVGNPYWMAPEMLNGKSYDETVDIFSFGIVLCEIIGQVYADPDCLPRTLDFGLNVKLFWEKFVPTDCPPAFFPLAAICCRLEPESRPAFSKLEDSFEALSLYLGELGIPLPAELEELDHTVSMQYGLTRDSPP
T3 sequence (P00519 whole entry): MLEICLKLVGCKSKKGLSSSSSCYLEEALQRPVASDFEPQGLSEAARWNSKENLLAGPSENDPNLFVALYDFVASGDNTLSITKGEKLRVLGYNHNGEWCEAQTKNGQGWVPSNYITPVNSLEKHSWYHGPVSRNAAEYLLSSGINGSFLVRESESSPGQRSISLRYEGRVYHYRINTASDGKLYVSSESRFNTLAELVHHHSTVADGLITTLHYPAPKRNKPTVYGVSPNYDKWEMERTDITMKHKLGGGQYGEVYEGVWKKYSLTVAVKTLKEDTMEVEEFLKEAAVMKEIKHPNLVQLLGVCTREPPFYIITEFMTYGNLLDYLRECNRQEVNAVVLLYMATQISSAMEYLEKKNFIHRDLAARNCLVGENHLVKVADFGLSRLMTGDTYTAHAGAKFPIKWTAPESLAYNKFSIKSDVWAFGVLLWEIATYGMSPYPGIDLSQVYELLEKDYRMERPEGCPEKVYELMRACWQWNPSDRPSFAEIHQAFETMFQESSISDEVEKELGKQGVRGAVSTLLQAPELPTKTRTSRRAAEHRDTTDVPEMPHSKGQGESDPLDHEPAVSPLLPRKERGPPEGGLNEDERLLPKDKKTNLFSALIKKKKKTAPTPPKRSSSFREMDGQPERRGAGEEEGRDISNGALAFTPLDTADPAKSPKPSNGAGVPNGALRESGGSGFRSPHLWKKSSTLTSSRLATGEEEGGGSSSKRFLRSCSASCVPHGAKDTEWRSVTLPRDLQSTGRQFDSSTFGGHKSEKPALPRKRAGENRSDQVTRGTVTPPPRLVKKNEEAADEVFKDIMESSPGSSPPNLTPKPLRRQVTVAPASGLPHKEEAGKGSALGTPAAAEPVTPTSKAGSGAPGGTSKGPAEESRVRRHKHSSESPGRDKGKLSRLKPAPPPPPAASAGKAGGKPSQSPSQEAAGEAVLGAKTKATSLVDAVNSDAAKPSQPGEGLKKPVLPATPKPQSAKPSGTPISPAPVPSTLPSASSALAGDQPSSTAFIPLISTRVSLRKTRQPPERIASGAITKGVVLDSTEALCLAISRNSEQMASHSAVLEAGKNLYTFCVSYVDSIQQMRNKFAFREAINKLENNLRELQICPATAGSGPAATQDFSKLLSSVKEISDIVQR
Description for BRD7: HEK293/BRD9-HiBiT pools (PROMEGA # CS3023120) and HEK293/BRD7-HiBiT pools (PROMEGA # CS3023124) were purchased from Promega. We performed clonal selection for HEK293/BRD9-HiBiT cell line using single-cell sorting and screening for HiBiT expression using Nano-Glo HiBiT Lytic Detection System (Promega # N3030). The HEK293/BRD9-HiBiT clone and HEK293/BRD7-HiBiT pool to perform standard HiBiT assays.

Take `COc1cc(-c2cn(C)c(=O)c3cnccc23)c(OC)cc1CN1CCC(OCCCCCC(=O)N2CCN(c3ccc4c(NCCN)nc(C5(c6ccc(Cl)cc6)CCCCC5)nc4c3)CC2)CC1` [DBr-1]: the “maximal observed degradation (BRD7), % in brackets” value on BRD7 (2 h) was found to be 65%. Besides, the DC50 at BRD7 (read-out: rel. DC50 (BRD7), 2 h) was 360 nM.

In the case of `Cc1nc(Nc2ncc(C(=O)Nc3c(C)cccc3Cl)s2)cc(N2CCC(OC3CCN(CCCCCCCC(=O)N4CCN(c5ccc6c(NCCN)nc(C7(c8ccc(Cl)cc8)CCCCC7)nc6c5)CC4)CC3)CC2)n1` [DDa-1], the “kinases with significant protein level reduction (LC/MS proteomics)” value in the experiment with HEK293T cells was “CSK and LIMK2; also recorded: TEC and TNK2”. Moreover, the LIMK2 protein levels result at LIMK2 was “significant reduction in protein levels”. Moreover, the ABL1 protein levels result on ABL1 is given as “not”.
